Source: patent US20240417403A1, “CRYSTALLINE FORMS OF QUINAZOLINE DERIVATIVES, PREPARATION, COMPOSITION AND USE THEREOF” (Hoffmann-La Roche Inc., priority 2021, published 2024)
Where a name gives a salt, the structure may show the parent alone.

Experiments:
Assay type in all cases: physicochemical
[1] = TGA and DSC/mDSC thermal analysis (characterization of forms)
Protocol: In salt screening and evaluation and in polymorph study, TGA was performed using a TA Q500, TA Q5000 or Discovery 5500 TGA from TA Instruments. DSC or mDSC was performed using a TA Q200/Q2000 or Discovery 2500 DSC from TA Instruments.

[2] = Bulk density, tap density and Carr index (flowability and compressibility)
Protocol: Bulk density was determined by adding appropriate amount (m) of material into a 5 mL graduate cylinder and recording its apparent volume (v0). The bulk density was obtained by dividing the amount of material by its apparent volume of the unsettled material (ρ0=m/v0). For tap density, the cylinder was then tapped for 200 times. The tap density was then calculated by dividing the amount of material by its final tapped volume (ρ1=m/v1). Carr index=(ρ1−ρ0)/ρ1.
(§1) The results of amorphous freebase, Freebase Type F, Fumarate Type B and Fumarate Type E for flowability and compressibility were summarized in Table 30. Generally, powders with smaller Karl index would show better compressibility and flowability. And powders with smaller angle of repose would show better flowability.

[3] = Angle of repose (flowability)
Source text: Form the angle of repose on a fixed base with a retaining lip to retain a layer of powder on the base. Carefully build up a symmetrical cone of powder. Determine the angle of repose by measuring the height (h) and base radius (r) of the cone of powder and calculating the angle of repose a from the following equation α=tan^−1(h/r).
as §1

[4] = Solid state stability, 40° C./75% RH/open for 1 month (XRPD, HPLC purity)
Protocol: An Agilent 1260 HPLC instrument was utilized and detailed chromatographic conditions for purity and solubility analysis were listed in Table 6.
To evaluate the solid state stability of the selected forms (amorphous freebase, Freebase Type F, Fumarate Type A and Fumarate Type B) samples were stored under 40° C./75% RH/open for 1 month. Stability samples were characterized by XRPD to check any solid form change and by HPLC to check purity change.

[5] = crystalline salts, listed as HCl salt Type A
[6] = crystalline salts, listed as HCl salt Type B

COc1ccc2ncnc(Nc3ccc(Oc4cc5ncnn5cn4)c(C)c3)c2c1O[C@@H]1CCN(C)CC1(F)F [Adipate Type A, (R)-N-(4-([1,2,4]triazolo[1,5-c]pyrimidin-7-yloxy)-3-methylphenyl)-5-((3,3-difluoro-1-methylpiperidin-4-yl)oxy)-6-methoxyquinazolin-4-amine]
TGA weight loss (150° C., %) ([1]; crystalline salts): 3.0%
DSC endotherm (° C., peak) ([1]; crystalline salts): 106.7 °C

COc1ccc2ncnc(Nc3ccc(Oc4cc5ncnn5cn4)c(C)c3)c2c1O[C@@H]1CCN(C)CC1(F)F [Amorphous Fumarate, (R)-N-(4-([1,2,4]triazolo[1,5-c]pyrimidin-7-yloxy)-3-methylphenyl)-5-((3,3-difluoro-1-methylpiperidin-4-yl)oxy)-6-methoxyquinazolin-4-amine]
TGA weight loss (%, temp.) ([1]; fumarate forms, to 150° C.): 3.6 (to 150° C.) %

COc1ccc2ncnc(Nc3ccc(Oc4cc5ncnn5cn4)c(C)c3)c2c1O[C@@H]1CCN(C)CC1(F)F [Freebase Type A, (R)-N-(4-([1,2,4]triazolo[1,5-c]pyrimidin-7-yloxy)-3-methylphenyl)-5-((3,3-difluoro-1-methylpiperidin-4-yl)oxy)-6-methoxyquinazolin-4-amine]
DSC endotherm (° C., peak) ([1]; free base forms): 71.3 °C
TGA weight loss (%, temp.) ([1]; free base forms, to 140° C.): 9.9 (to 140° C.) %

COc1ccc2ncnc(Nc3ccc(Oc4cc5ncnn5cn4)c(C)c3)c2c1O[C@@H]1CCN(C)CC1(F)F [Freebase Type C, (R)-N-(4-([1,2,4]triazolo[1,5-c]pyrimidin-7-yloxy)-3-methylphenyl)-5-((3,3-difluoro-1-methylpiperidin-4-yl)oxy)-6-methoxyquinazolin-4-amine]
TGA weight loss (%, temp.) ([1]; free base forms, to 150° C.): 1.5 (to 150° C.) %

COc1ccc2ncnc(Nc3ccc(Oc4cc5ncnn5cn4)c(C)c3)c2c1O[C@@H]1CCN(C)CC1(F)F [Freebase Type F, (R)-N-(4-([1,2,4]triazolo[1,5-c]pyrimidin-7-yloxy)-3-methylphenyl)-5-((3,3-difluoro-1-methylpiperidin-4-yl)oxy)-6-methoxyquinazolin-4-amine]
TGA weight loss (%, temp.) ([1]; free base forms, to 70° C.): 5.7 (to 70° C.) %
Bulk density [2]: 0.19 g/mL
Carr index ([2]; (ρ1−ρ0)/ρ1): 31.9%
Tapped density ([2]; tapped 200 times): 0.28 g/mL
Angle of repose [3]: 35.8°
Purity/Initial by HPLC area % ([4]; 40° C., 75% RH, open): 100.3%
Form Change ([4]; 40° C., 75% RH, open, by XRPD): No
Purity change by HPLC (chemical stability) compared with amorphous freebase ([4]; 40° C./75% RH): lower purity change
Solid form change by XRPD (physical stability) ([4]; 40° C./75% RH/open): no form change

COc1ccc2ncnc(Nc3ccc(Oc4cc5ncnn5cn4)c(C)c3)c2c1O[C@@H]1CCN(C)CC1(F)F [Freebase Type G, (R)-N-(4-([1,2,4]triazolo[1,5-c]pyrimidin-7-yloxy)-3-methylphenyl)-5-((3,3-difluoro-1-methylpiperidin-4-yl)oxy)-6-methoxyquinazolin-4-amine]
TGA weight loss (%, temp.) ([1]; free base forms, to 70° C.): 7.3 (to 70° C.) %

COc1ccc2ncnc(Nc3ccc(Oc4cc5ncnn5cn4)c(C)c3)c2c1O[C@@H]1CCN(C)CC1(F)F [HCl Salt Type A, (R)-N-(4-([1,2,4]triazolo[1,5-c]pyrimidin-7-yloxy)-3-methylphenyl)-5-((3,3-difluoro-1-methylpiperidin-4-yl)oxy)-6-methoxyquinazolin-4-amine]
TGA weight loss (150° C., %) [1, 5]: 8.8%
DSC endotherm (° C., peak) [1, 5]: 110.0 °C

COc1ccc2ncnc(Nc3ccc(Oc4cc5ncnn5cn4)c(C)c3)c2c1O[C@@H]1CCN(C)CC1(F)F [HCl Salt Type B, (R)-N-(4-([1,2,4]triazolo[1,5-c]pyrimidin-7-yloxy)-3-methylphenyl)-5-((3,3-difluoro-1-methylpiperidin-4-yl)oxy)-6-methoxyquinazolin-4-amine]
TGA weight loss (150° C., %) [1, 6]: 2.3%
DSC endotherm (° C., peak) [1, 6]: 241.7 °C

COc1ccc2ncnc(Nc3ccc(Oc4cc5ncnn5cn4)c(C)c3)c2c1O[C@@H]1CCN(C)CC1(F)F [L-tartrate Type A, (R)-N-(4-([1,2,4]triazolo[1,5-c]pyrimidin-7-yloxy)-3-methylphenyl)-5-((3,3-difluoro-1-methylpiperidin-4-yl)oxy)-6-methoxyquinazolin-4-amine]
TGA weight loss (150° C., %) ([1]; crystalline salts): 3.7%

COc1ccc2ncnc(Nc3ccc(Oc4cc5ncnn5cn4)c(C)c3)c2c1O[C@@H]1CCN(C)CC1(F)F [Mesylate Type A, (R)-N-(4-([1,2,4]triazolo[1,5-c]pyrimidin-7-yloxy)-3-methylphenyl)-5-((3,3-difluoro-1-methylpiperidin-4-yl)oxy)-6-methoxyquinazolin-4-amine]
TGA weight loss (150° C., %) ([1]; crystalline salts): 10.2%
DSC endotherm (° C., peak) ([1]; crystalline salts): 65.1 °C

COc1ccc2ncnc(Nc3ccc(Oc4cc5ncnn5cn4)c(C)c3)c2c1O[C@@H]1CCN(C)CC1(F)F [Mesylate Type B, (R)-N-(4-([1,2,4]triazolo[1,5-c]pyrimidin-7-yloxy)-3-methylphenyl)-5-((3,3-difluoro-1-methylpiperidin-4-yl)oxy)-6-methoxyquinazolin-4-amine]
TGA weight loss (150° C., %) ([1]; crystalline salts): 7.6%
DSC endotherm (° C., peak) ([1]; crystalline salts): 63.4 °C

COc1ccc2ncnc(Nc3ccc(Oc4cc5ncnn5cn4)c(C)c3)c2c1O[C@@H]1CCN(C)CC1(F)F [Phosphate Type A, (R)-N-(4-([1,2,4]triazolo[1,5-c]pyrimidin-7-yloxy)-3-methylphenyl)-5-((3,3-difluoro-1-methylpiperidin-4-yl)oxy)-6-methoxyquinazolin-4-amine]
TGA weight loss (150° C., %) ([1]; crystalline salts): 9.5%
